# Entries after “also recorded” stand apart in the source; their conditions may differ. Where two headings read alike, the source gives them in different places. Starred links: 1 amine or outer side, 2 acyl side, 3 side chain; linkers in the order of their positions; H or OH if unused. Positions of bridges follow the written chain, without caps; N, C: chain ends. Non-standard residues stand in square brackets, D forms with d. Residues, ends and D or L forms follow the SMILES beside them. *: point of attachment. X1 = CC(C)CCCCCCCCC[C@H](CC(=O)[*:1])O[*:2]; d(aThr) = C[C@@H](O)[C@@H](N)C(=O)O; X2 = CCCCCCCCCCCC(O)CC(=O)*
# How the values were obtained:
# SARS-CoV-2 [1] = experiment: Replication / antiviral assay, viral RNA in supernatant by RT-qPCR; type: cell-based; conditions: for EC50 / EC50 (half maximal effective concentration): mean (standard deviation); for EC50: read-out: EC50 (half maximal effective concentration); for Viral RNA concentration per milliliter: surfactin 35, WLIP 20, caspofungin 100 µg/mL; for Reduction of viral RNA concentration / Reduction in viral RNA: surfactin 35, WLIP 20, fengycin 50, caspofungin 100 µg/mL; for Reduction in viral RNA: 72 h (Fig. 5)
# [2] = Cytotoxicity, CyQUANT XTT cell viability assay; type: cell-based, Chlorocebus sp.; conditions: Chlorocebus sp. (African green monkey), Vero E6 cells; for IC50 at 72 h: Vero E6 cells (kidney epithelial cells), XTT, mean (standard deviation), fengycin and caspofungin determined at higher concentrations in a subsequent experiment, read-out: IC50 (half maximal inhibitory concentration, cytotoxicity); for viability at 72 h: surfactin 35, WLIP 20, fengycin 50, caspofungin 100 µg/mL, Vero E6 (Fig. 5)
# Description: (§1) Chlorocebus sp. kidney epithelial cells (Vero E6; ATCC VERO C1008) were cultured in Dulbecco’s Modified Eagle medium (DMEM) High Glucose w/ Stable Glutamine w/ Sodium Pyruvate (VWR, USA) supplemented with 2% (vol/vol) of decomplemented fetal bovine serum (FBS, Biowest, France) and 1% (vol/vol) Penicillin-Streptomycin (VWR, USA). The cells were grown at 37°C in a humidified 5% CO2 atmosphere. Cells were routinely passaged when they reached 100% confluence and were passaged until passage 15.
# (§2) The cytotoxic activity of the lipopeptides was assessed using a CyQUANT XTT Cell Viability Assay (Thermo Fisher Scientific) according to the manufacturer’s instructions. […] The cells were then incubated for 72 h at 37°C. The kit was then used following the manufacturer’s instructions, and the plates were read at 450 nm and 660 nm using a Multiskan GO Microplate Spectrophotometer (Thermo Fisher Scientific). The percentage of viable cells was calculated as (AT450 − AT660 − AB450) / (AC450 − AC660) × 100%, where AT450, AT660, AB450, AC450, and AC660 represent the absorbance of the tested well at 450 nm, of the tested well at 660 nm, of the blank (only medium) at 450 nm, of the control cells at 450 nm, and of the control cells at 660 nm, respectively. One hundred percent viability corresponds to the viability of uninfected cells. DMSO concentrations ranging from 0.5% (vol/vol) to 0.001% (vol/vol) were used as a negative control for the assay. Every sample was tested in triplicate.
# SARS-CoV-2 [3] = type: cell-based; conditions: cells pre-treated, surfactin 35, WLIP 20, fengycin 50, caspofungin 100 µg/mL
# SARS-CoV-2 [4] = conditions: surfactin 35, WLIP 20, fengycin 50, caspofungin 100 µg/mL; 100% = untreated infected cells at 37°C
# Description: To determine the impact of lipopeptides on the fusion step, intracellular viral RNA was quantified after infection of cells with SARS-CoV-2 but before the budding step. […] The cells were pre-chilled for 15 min on ice. The cells were infected with SARS-CoV-2 (MOI of 10) in DMEM + 2% FBS and incubated for 2 h on ice with gentle agitation. The inoculum was removed, and the cells were gently washed three times with ice-cold DPBS. The positive control was inactivated to determine the basal viral RNA concentration after binding of the virus. The lipopeptides were added to room temperature DMEM + 2% (vol/vol) FBS and incubated at 37°C for 7 h. […] The cells were rinsed with DPBS, and the wells were dried. The samples were inactivated for 30 min at 70°C before quantification of the viral RNA by RT-qPCR. Every sample was tested in triplicate.
# Vero E6 cells = experiment: Cytotoxicity, CyQUANT XTT cell viability assay; type: cell-based, Chlorocebus sp.; conditions: for Cytotoxicity: concentrations up to 100 µg/mL, Vero E6, 72 h; for IC50 (half maximal inhibitory concentration, cytotoxicity): Vero E6 cells, 72 h, XTT, mean (standard deviation), fengycin and caspofungin determined at higher concentrations in a subsequent experiment
# Description: as §1, §2
# SARS-CoV-2 [5] = experiment: Binding inhibition: pre-treatment of SARS-CoV-2 and incubation on cells; type: cell-based; conditions: virus pre-treated, surfactin 35, WLIP 20, fengycin 50, caspofungin 100 µg/mL
# Vero cells = tested on: Vero cells; parameters: method as in earlier work; conditions: ref 38 (Shekunov et al.); cited from earlier work
# SARS-CoV-2 [6] = tested on: SARS-CoV-2; parameters: method as in doi:10.3390/applmicrobiol2030052; conditions: 1 mg/mL, Vero E6 cells; cited from earlier work
# SARS-CoV-2 [7] = experiment: Direct antiviral assay by viral titration (TCID50); conditions: 1 h incubation with virus, vs virus alone
# SARS-CoV-2 [8] = experiment: Budding inhibition assay; type: cell-based; conditions: 10 h pi, surfactin 35 µg/mL
# Description: Fresh medium was added to the cells, and the plates were incubated for 5 h at 37°C. The supernatant was discarded, and lipopeptides were added to the cells. A sample of cell supernatant was taken every hour for 4 h. After infection, the control was kept at 4°C to inhibit the release of virions, and act as a positive control of the experiment. […] Every sample was tested in triplicate.
# [9] = 100 µg/mL, 72 h pi, compared to untreated infected cells
# [10] = 24 h pi, serum diluted five times
# [11] = 72 h pi, serum diluted five times, […]
# [12] = Severe acute respiratory syndrome coronavirus 2, Vero C1008, 72 h, […]
# [13] = SARS-CoV-2 MOI 0.01, Vero E6, viral RNA at 72 h pi by RT-qPCR
Molecule,Maximal RNA reduction at 100 µg/mL (SARS-CoV-2 [1]; [9]),IC50 at 72 h [2],Binding percentage of SARS-CoV-2 to cells (SARS-CoV-2 [3]),Fusion percentage (SARS-CoV-2 [4]),Maximal RNA reduction at 100 µg/mL (SARS-CoV-2 [1]),Viral RNA concentration per milliliter (SARS-CoV-2 [1]; [10]),Viral RNA concentration per milliliter (SARS-CoV-2 [1]; 72 h pi),Reduction of viral RNA concentration (SARS-CoV-2 [1]; [11]),EC50 (SARS-CoV-2 [1]; [12]),Reduction in viral RNA (SARS-CoV-2 [1]),viability at 72 h [2],Cytotoxicity (Vero E6 cells),Binding percentage of SARS-CoV-2 to cells (SARS-CoV-2 [5]),IC50 (Vero cells),EC50 (half maximal effective concentration) (SARS-CoV-2 [1]; [13]),"IC50 (half maximal inhibitory concentration, cytotoxicity) (Vero E6 cells)",further results
CCC(=O)CCCCC[C@@H]1NC(=O)[C@H]2CCCCN2C(=O)[C@H]([C@@H](C)CC)NC(=O)[C@H](Cc2cn(OC)c3ccccc23)NC1=O [Apicidin],3.7-log,0.7 µg/mL,–,–,–,–,–,–,–,–,–,–,–,–,–,–,"EC50 (SARS-CoV-2 [1]; Severe acute respiratory syndrome coronavirus 2, Vero C1008, SARS-CoV-2 MOI 0.01, Vero E6, viral RNA at 72 h pi by RT-qPCR): 25.2 µg/mL"
"CC[C@H](C)C[C@H](C)CCCCCCCCC(=O)N[C@H]1C[C@@H](O)[C@@H](NCCN)NC(=O)[C@@H]2[C@@H](O)CCN2C(=O)[C@H]([C@H](O)CCN)NC(=O)[C@H]([C@H](O)[C@@H](O)c2ccc(O)cc2)NC(=O)[C@@H]2C[C@@H](O)CN2C(=O)[C@H]([C@@H](C)O)NC1=O [Caspofungin, reference compound]",–,129 µg/mL,81%,51.4%,3.7-log,7.9 × 10^2 RNA concentration per milliliter,1.8 × 10^4 RNA concentration per milliliter,2.1 log,140 µg/mL,2.4 log,96.9%,did not cause any cytotoxicity; also recorded: without any apparent cytotoxicity,did not show any effect on the binding percentage,–,–,–,Maximal RNA reduction at 100 µg/mL (SARS-CoV-2 [1]; listed as caspofungin): 3.7 log
"CCCCCCCCCC(=O)N[C@@H](Cc1c[nH]c2ccccc12)C(=O)N[C@H](CC(N)=O)C(=O)N[C@@H](CC(=O)O)C(=O)N[C@@H]1C(=O)NCC(=O)N[C@@H](CCCN)C(=O)N[C@@H](CC(=O)O)C(=O)N[C@H](C)C(=O)N[C@@H](CC(=O)O)C(=O)NCC(=O)N[C@H](CO)C(=O)N[C@@H]([C@H](C)CC(=O)O)C(=O)N[C@@H](CC(=O)c2ccccc2N)C(=O)O[C@@H]1C [Daptomycin, reference compound]",–,> 100 µg/mL,–,–,0.3-log,–,–,–,> 100 µg/mL,–,–,did not cause any cytotoxicity,–,0.7 µg/mL,–,–,Maximal RNA reduction at 100 µg/mL (SARS-CoV-2 [1]; listed as daptomycin): no effect
CCCCCCCCCCCC(O)CC(=O)N[C@@H](CC(C)C)C(=O)N[C@H](CCC(=O)O)C(=O)N[C@H]1C(=O)N[C@H](C(C)C)C(=O)N[C@@H](CC(C)C)C(=O)N[C@H](CO)C(=O)N[C@@H](CC(C)C)C(=O)N[C@@H](CC(C)C)C(=O)N[C@H](CO)C(=O)N[C@@H](C(C)C)C(=O)O[C@@H]1C (some centres unmarked) [Orfamide B] (X2-L[dE][d(aThr)][dV]L[dS]LL[dS]V; ester 3-C),6.3-log,–,–,–,–,–,–,–,–,–,–,–,–,–,12.8 (4.1) µg/mL,14.6 (0.4) µg/mL,"Maximal RNA reduction at 100 µg/mL (SARS-CoV-2 [1]; 100 µg/mL, 72 h pi, compared to untreated infected cells, listed as orfamide B): 6.3 log"
CC(C)CCCCCCCCC[C@@H]1CC(=O)N[C@@H](CCC(=O)O)C(=O)N[C@@H](CC(C)C)C(=O)N[C@H](CC(C)C)C(=O)N[C@@H](C(C)C)C(=O)N[C@@H](CC(=O)O)C(=O)N[C@H](CC(C)C)C(=O)N[C@@H](CC(C)C)C(=O)O1 [Surfactin] (EL[dL]VD[dL]L; linker N-C via X1),–,51.5 µg/mL,10.0%,10.4%,6.3-log,2.5 × 10^2 RNA concentration per milliliter,5.7 × 10^1 RNA concentration per milliliter,4.6 log,50 µg/mL,2.9 log,98.5%,–,34.7%,0.6 µg/mL,–,–,"Viral RNA (SARS-CoV-2 [1]; 45 µg/mL): no viral RNA was detected; SARS-CoV-2 RNA concentration (SARS-CoV-2 [1]; 100 µg/mL, at every timepoint (24, 48, 72 h)): non-detectable levels; Reduction of viral RNA concentration (SARS-CoV-2 [1]; 24 h pi, serum diluted five times, […]): 1.1 log; Maximal RNA reduction at 100 µg/mL (SARS-CoV-2 [1]; listed as surfactin): 6.3 log; viability at 72 h, 45 µg/mL ([2]; 45 µg/mL): ~0%; SARS-CoV-2 infectivity (SARS-CoV-2 [6]): able to reduce SARS-CoV-2 infectivity; Reduction in viral titer (direct effect) (SARS-CoV-2 [7]; 100 µg/mL): 1.6 log; Reduction in viral titer (direct effect) (SARS-CoV-2 [7]; surfactin 35, WLIP 20, fengycin 50, caspofungin 100 µg/mL, serum diluted five times): did not directly inactivate SARS-CoV-2; Reduction of RNA concentration (budding) (SARS-CoV-2 [8]): 1 log; RNA concentration per milliliter in supernatant (budding) (SARS-CoV-2 [8]; infected cells without treatment 8646.9): 858.7 RNA concentration per milliliter"
Colistin (polymyxin E) [reference compound],0.2-log,–,–,–,–,–,–,–,–,–,–,did not cause any cytotoxicity,–,–,>100.0 µg/mL,>100.0 µg/mL,"Maximal RNA reduction at 100 µg/mL (SARS-CoV-2 [1]; 100 µg/mL, 72 h pi, compared to untreated infected cells, listed as colistin): no activity up to 100 µg/mL"

# Source: publication PMC11577759, “The structure of lipopeptides impacts their antiviral activity and mode of action against SARS-CoV-2 in vitro” (Applied and Environmental Microbiology, 2024)
